Results on 6 molecules are retold here after ChEMBL document CHEMBL3046744, “Comparison of the declining triazole sensitivity of Gibberella zeae and increased sensitivity achieved by advances in triazole fungicide development” (Crop Prot, 2007).

Data set [1] relates to Fusarium culmorum. Kind of data set: Antifungal activity against Fusarium culmorum infected durum wheat assessed as reduction in deoxynivalenol content in crop. The class given is functional. Details: scale not given: the % may be the effect or the level left.
The subject of data set [2] is Fusarium graminearum. Kind of data set: Growth inhibition of Fusarium graminearum isolate 106 at 10^-4 M after 14 days. Format: functional. The note with it: isolate 106, 336 h, read-out: GI.
Data set [3] can be described thus: Toxicity in po dosed Rattus norvegicus (rat). Format: organism-based. The note with it: in vivo.
The subject of data set [4] is Fusarium graminearum. Kind of data set: Growth inhibition of Fusarium graminearum isolate 4527b at 10^-4 M after 14 days. Particulars: 336 h, read-out: GI. Format: functional.
Data set [5] deals with Fusarium graminearum. Kind of data set: Growth inhibition of Fusarium graminearum isolate 123 at 10^-4 M after 14 days. Particulars: isolate 123, 336 h, read-out: GI. Format: functional.
Data set [6] has as its system Fusarium graminearum. Description: Growth inhibition of Fusarium graminearum isolate 137 at 10^-4 M after 14 days. Format: functional. Particulars: isolate 137, 336 h, read-out: GI.
In data set [7] the test system is Fusarium graminearum. Kind of data set: Growth inhibition of Fusarium graminearum isolate 74B at 10^-4 M after 14 days. Format: functional. The note with it: 336 h, read-out: GI.
Data set [8] is described as follows: Aqueous solubility of the compound assessed per 100 g. The class given is physicochemical. The note with it: buffer.
The subject of data set [9] is Fusarium graminearum. Description: Growth inhibition of Fusarium graminearum isolate 102 at 10^-4 M after 14 days. The note with it: isolate 102, 336 h, read-out: GI. The class given is functional.
Data set [10] has as its system Fusarium graminearum. Kind of data set: Growth inhibition of Fusarium graminearum isolate 37 at 10^-4 M after 14 days. The note with it: isolate 37, 336 h, read-out: GI. The class given is functional.
The subject of data set [11] is Fusarium graminearum. Kind of data set: Antifungal activity against Fusarium graminearum isolate 137 after 8 hr by microscopic analysis. Format: functional, organism-based. Particulars: isolate 137, 8 h, pooled result: one value given for 5 cell lines, strains, targets or settings.
Data set [12] relates to Fusarium graminearum. Kind of data set: Antifungal activity against Fusarium graminearum after 8 hr by microscopic analysis relative to prothioconazole. Format: functional.
For data set [13], the system named is Rattus norvegicus. Kind of data set: Toxicity in po dosed Rattus norvegicus (rat) relative to metconazole. Format: organism-based. The note with it: in vivo.
A short description of data set [14]: Aqueous solubility of the compound assessed per 100 g at pH 7. The class given is physicochemical. The note with it: buffer.
A short description of data set [15]: Selectivity ratio of relative toxicity against po dosed rat to relative efficacy against Gibberella zeae. The class given is organism-based. The note with it: in vivo.
For data set [16], the system named is Fusarium graminearum. Description: Growth inhibition of Fusarium graminearum at >/= 0.001 M after 14 days. Format: functional, organism-based.

Structures are written as SMILES. Activity calls are given as the source filed them. The rule behind the calls is not given here.

Consider `Clc1ccc(C2(Cn3cncn3)CC(Br)CO2)c(Cl)c1` (stereo unspecified) [BROMUCONAZOLE], for which the Activity in [1] came to 43%.
Consider `Fc1ccc([C@]2(Cn3cncn3)O[C@H]2c2ccccc2Cl)cc1` [EPOXICONAZOLE], for which the inhibition of growth at 100 µM was 95.4% in data set [2]; 98% in data set [4]; 95.9% in data set [5]; 99.6% in [6]; 95.7% in data set [7]; 97.1% in data set [9]. Moreover, in data set [10], the inhibition of growth at 100 µM was determined as 98.7%. In addition, the LD50 (as a rule, the dose expected to kill half of the subjects tested) in [3] was 3160 mg/kg. In addition, the solubility in data set [8] is reported as 0.7 mg. The response in data set [11] was half-maximal at 10800 µM (EC50). The “fold change (FC)” value is recorded as 0 in data set [12] and 0.19 in data set [13].
In turn, `CC1(C)CCC(Cc2ccc(Cl)cc2)C1(O)Cn1cncn1` (stereo unspecified) [METCONAZOLE] showed a median lethal dose (LD50) in data set [3] of 660 mg/kg. The molecule also gave a solubility in data set [14] of 3 mg. For the same molecule, in data set [15], the selectivity ratio was found to be 0.27. Moreover, in data set [11], the EC50 – broadly, the midpoint of the concentration-response curve – was found to be 177 µM. In addition, the “fold change (FC)” value in [12] is on record as 0.27.
For `CCCN(CCOc1c(Cl)cc(Cl)cc1Cl)C(=O)n1ccnc1` [PROCHLORAZ], the Activity in [1] came out at 43%.
As for `OC(Cc1ccccc1Cl)(Cn1nc[nH]c1=S)C1(Cl)CC1` (stereo unspecified) [PROTHIOCONAZOLE], in [3], the LD50 came to 6200 mg/kg. In addition, the selectivity ratio in data set [15] worked out at 10.3. For the same molecule, in [11], a half-maximal response (EC50) required 32 µM. Further, the “fold change (FC)” value in [13] was determined as 0.1.
In [3], `CC(C)(C)C(O)(CCc1ccc(Cl)cc1)Cn1cncn1` (stereo unspecified) [TEBUCONAZOLE] came in with an LD50 of 1700 mg/kg. The selectivity ratio in data set [15] came to 0.44. The molecule further came in with a solubility in data set [8] of 3.6 mg. The “growth inhibition (GI)” value in data set [16] was “Active”. For the same molecule, the EC50 in data set [11] was found to be 327 µM. Moreover, the figures for the “fold change (FC)” value in data set [12] and in data set [13] were 0.15 and 0.35, respectively. Moreover, the Activity in data set [1] came out at 43%.
